This note sets out measurements from ChEMBL document CHEMBL1926634, “Structure-guided evolution of potent and selective CHK1 inhibitors through scaffold morphing” (J Med Chem, 2011).

This assay deals with T1, Serine/threonine-protein kinase Chk1 (Homo sapiens, UniProt O14757).
T1 sequence (O14757 whole entry): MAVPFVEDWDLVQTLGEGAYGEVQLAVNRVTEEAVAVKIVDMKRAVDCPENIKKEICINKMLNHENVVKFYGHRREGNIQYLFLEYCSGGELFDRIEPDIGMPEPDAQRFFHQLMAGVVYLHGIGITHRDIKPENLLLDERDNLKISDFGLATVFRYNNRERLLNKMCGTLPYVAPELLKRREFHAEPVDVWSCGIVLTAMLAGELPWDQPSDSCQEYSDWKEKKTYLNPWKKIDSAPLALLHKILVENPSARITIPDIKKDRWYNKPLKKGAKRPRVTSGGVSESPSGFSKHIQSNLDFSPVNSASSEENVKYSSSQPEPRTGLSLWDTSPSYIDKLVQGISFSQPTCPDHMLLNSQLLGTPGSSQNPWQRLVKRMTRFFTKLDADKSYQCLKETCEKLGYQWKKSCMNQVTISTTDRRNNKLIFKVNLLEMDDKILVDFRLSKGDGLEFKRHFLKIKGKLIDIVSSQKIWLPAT
Description: Competitive inhibition of human CHK1 using ATP as substrate by DELFIA
Molecule `N#Cc1cnc(Nc2cc(NCC3CCOCC3)ncn2)cn1` had an IC50 of 20 µM.
The molecule `NC1CCN(c2ncnc3[nH]c4cnccc4c23)CC1` had an IC50 of 0.67 µM.
The same measure for `N#Cc1cccc(-c2c[nH]c3ncnc(N4CCOC(CN)C4)c23)c1` (configuration not stated): 3.2 µM.
Turning to `NCC1CCN(c2cc(Nc3cnccn3)ncn2)CC1`, the IC50 was found to be 22 µM.
As for `NCCCNc1ncnc2[nH]c3cnccc3c12`, the figure is 1.7 µM; as for `c1cncc(Nc2cc(NCC3CCNCC3)ncn2)c1`, 122 µM; as for `NCC1CCN(c2ncnc3[nH]c4cnccc4c23)CC1`, 0.29 µM.

Broadly, the IC50 is the point on the concentration scale where inhibition reaches its midpoint. Low readings indicate greater potency in that assay, high ones weaker potency in that assay.
